US20190345202A1, “ANDROGEN RECEPTOR ANTISENSE OLIGONUCLEOTIDES” (OliPass Corporation, priority 2016, published 2019)

How the values were obtained:
10-mer complementary DNA = test: Tm of duplex between PNA and 10-mer complementary DNA (UV/Vis); type: binding; settings: 4 μM PNA and 4 μM 10-mer DNA, aqueous buffer pH 7.16, 10 mM sodium phosphate, 100 mM NaCl
Protocol: The PNA derivatives in Table 1 were evaluated for their binding affinity for 10-mer DNAs complementarily targeting either the N-terminal or C-terminal. The binding affinity was assessed by Tm value for the duplex between PNA and 10-mer complementary DNA. The duplex between PNA derivatives in Table 1 and fully complementary DNAs show Tm values too high to be reliably determined in aqueous buffer solution, since the buffer solution tends to boil off during the Tm measurement.
Tm values were determined on an UV/Vis spectrometer as follows. A mixed solution of 4 μM PNA oligomer and 4 μM complementary 10-mer DNA in 4 mL aqueous buffer (pH 7.16, 10 mM sodium phosphate, 100 mM NaCl) in 15 mL polypropylene falcon tube was incubated at 90° C. for a minute and slowly cooled down to ambient temperature over several minutes. Then the solution was transferred into a 3 mL quartz UV cuvette equipped with an air-tight cap, and subjected to a Tm measurement at 260 nm on an Agilent 8453 UV/Visible spectrophotometer or a similar one as described in the prior art [PCT/KR2009/001256] or with minor modifications. The 10-mer complementary DNAs for Tm measurement were purchased from Bioneer (www.bioneer.com, Dajeon, Republic of Korea) and used without further purification.

C57BL/6 mice = test: Hair growth in C57BL/6 mice upon topical administration (brightness score, hair weight); type: in vivo, mouse; settings: for average hair weight: hair growth between Day 0 and Day 21
Protocol: (§1) [Hair Removal and Grouping] In Day 0, 7 week old female C57BL/6 mice were anesthetized with zoletil/rompun, and the hair in the back was cut and removed with a clipper and wax, respectively. Mice with flawless (i.e. spotless) hair removal were selected and randomly assigned into three groups (7 animals per group).
[Topical Administration] The topical solutions of “ASO 1” were prepared by diluting a mother stock solution of “ASO 1” to 0.2 fM or 1 fM in aqueous 30% (v/v) ethanol supplemented with 3% (v/v) glycerin. About 100 μL of 0 (negative control), 0.2, or 1 fM “ASO 1” was topically administered in the back of each animal using a cotton ball in Days 3, 7, 10, and 14.
[Digital Image Scoring for Hair Growth] For scoring the hair growth, the animals were anesthetized and photographed by group as shown in FIG. 11A using a digital camera at a fixed value of exposure time and illumination. The digital image for the area of the hair removal for each animal was selected and digitally scored for the average brightness over the selected area using “ImageJ” program. Lower brightness score is taken as faster hair growth. Brightness scores of individual animals were combined by group, and subjected to statistical analysis by student's t-test. FIG. 11B summarizes the relative brightness scores of the ASO treated groups against the control group. The relative brightness score tended to decrease with days in the treatment groups. […] Thus, “ASO 1” was concluded to promote hair growth upon topical administrations at 1 fM.
[Scoring by Hair Weight] In Day 21, the animals were anesthetized and the hair in the back was cut with a clipper. The hair samples from individual animals were combined by group, and weighed to evaluate the hair growth between Day 0 and Day 21. The average hair weight was 70.5 mg/animal for the control group, 90.8 mg/animal for the 0.2 fM treatment group, and 94.4 mg/animal for the 1 fM treatment group. Thus “ASO 1” was concluded to promote hair growth upon topical administrations at 0.2 fM as well as 1 fM.
as §1, with “(10” for “(7”
[Topical Administration] The topical solutions of “ASO 5” were prepared by diluting a mother stock solution of “ASO 5” to 1, 5, or 25 fM in aqueous 30% (v/v) ethanol supplemented with 3% (v/v) glycerin. About 100 μL of each ASO solution or vehicle (negative control) was topically administered to in the back of an animal using a cotton ball in Days 3, 7, 10, 14 and 21.
Following the shaving in Day 21, the animals received a single topical administration of either vehicle or “ASO 5” at 1 fM, 5 fM, or 25 fM. In Day 53, the hair in the back was collected by shaving with a clipper to determine the total amount of hair growth between Days 21 and 53. The average hair weights of the 1 fM, 5 fM, and 25 fM groups were 1,630%, 1,450%, and 771% of the non-treated group, respectively. Thus “ASO 5” was concluded to promote hair growth upon topical administrations at 1 to 25 fM.
as §1, with “(9” for “(7”
[Topical Administration] The topical solutions of “ASO 10” were prepared by diluting a mother stock solution of “ASO 10” to 1, 5, or 25 fM in aqueous 30% (v/v) ethanol supplemented with 3% (v/v) glycerin. About 100 μL of each ASO solution or vehicle (negative control) was topically administered to in the back of an animal using a cotton ball in Day 2.

androgen receptor = test: AR IHC of skin samples after topical administration in mice; type: in vivo, mouse; settings: topical 0.2 fM or 1 fM, skin sampled Day 24
Excerpt: [AR IHC of Skin Sample] Following the shaving in Day 21, the mice received a single topical administration of either vehicle or “ASO 1” according to the group. In Day 24, the skin of the area with hair removal was sampled for immunohistochemistry (IHC) analysis against androgen receptor. The skin samples were cryo-sectioned and subjected to immunostaining in series with a primary anti-AR antibody (Cat. No. sc-816, Santa Cruz) at 1:100 dilution, with a secondary anti-IgG (Cat No. BA-1100, Vector) at 1:200 dilution, and then with Dylight 594-steptavidin (Cat No. SA-5594, Vector, Calif., USA) at 1:200 dilution for red fluoresence tagging. The IHC images were captured on an Olympus fluorescence microscope for changes in the AR expression level upon topical treatment with “ASO 1”.
[AR Immunohistochemistry of Skin Samples] After the hair cut in Day 27, The animals topically received further either vehicle or “ASO 10” at 1, 5, or 25 fM in Days 27 and 29. Skin samples of the back were collected in Day 30 for immunohistochemical analysis against androgen receptor. The skin samples were subjected to immunostaining against androgen receptor as described in “Example 7”. IHC images were captured on a Zeiss slide scanner. FIG. 14B is a representative set of AR IHC images. […] It would be difficult to clearly state that the AR expression in hair follicles decreased in the treatment groups due to the marked increases in the number of hair follicles in the treatment groups.

human AR mRNA = test: qPCR (SYBR Green) of AR mRNA level in MCF7 cells; settings: 5 hours
full-length AR protein = test: Western blot of AR protein in MCF7 cells; type: cell-based, human; settings: 100 zM to 300 aM, 48 hours
Protocol: 4 culture dishes were used for 4 negative controls. 48 hours later, cells were washed 2 times with cold PBS, and then subjected to lysis with 200 μL 1× cell lysis buffer (Cat. No. 9803, Cell Signaling Tech) supplemented with 1× protease inhibitor (Cat. No. P8340, Sigma). The lysates were collected in 1.5 ml e-tube. 200 μL of each lysate was mixed with 100 μL 3× sample buffer, and boiled for 5 min at 100 ? . 20 μL of each lysate (12 lysates in total). 4 negative controls and 8 ASO treatment samples) was subjected to electrophoretic separation on a 8% SDS-PAGE gel, and transferred onto a 0.2 μm PVDF membrane. The membrane was probed with anti-AR antibody (Cat. No. 5153, Cell Signaling Tech) and anti-β-actin antibody (Cat. No. sc4778, Santa Cruz). FIG. 10A provides the AR Western blot data obtained therefrom. Multiple (negative) control samples were used to overcome technical artifacts of western blot procedures.

Substance | Tm Value, 10-mer DNA against C-Terminal (10-mer complementary DNA) [°C] | Tm Value, 10-mer DNA against N-Terminal (10-mer complementary DNA) [°C] | average hair weight (C57BL/6 mice; 0.2 fM topical) [mg/animal] | average hair weight (C57BL/6 mice; 1 fM topical) [mg/animal] | brightness score vs non-treated group (C57BL/6 mice; Day 13, 1 fM topical in Days 3, 7, 10, 14, lower brightness = faster hair growth) | AR expression in hair follicles (IHC) (androgen receptor) | AR expression in the muscle layer underneath the dermis (IHC) (androgen receptor) | exon message levels (exons 4-6) relative to negative control (human AR mRNA; 1 aM) | decrease of exon message levels (exons 4-6) (human AR mRNA; 100 zM) | AR band intensity vs lysates without ASO treatment (full-length AR protein)
Fethoc-C(1O2)TT-A(6)CC-A(6)GG(6)-CA(6)A-NH2 (antisense CTTACCAGGCAA; N-Fethoc, C-terminal amide, chemistry not fully specified) [ASO 13] | 87.0 | 83.0 | – | – | – | – | – | – | – | –
Fethoc-GA(5)T-AC(1O2)C-A(5)GG(6)-CAA(5)-G-NH2 (antisense GATACCAGGCAAG; N-Fethoc, C-terminal amide, chemistry not fully specified) [ASO 8] | 86.0 | 87.4 | – | – | – | – | – | – | – | –
Fethoc-TA(5)C-CAG(6)-GC(1O2)A-A(5)GG(6)-C—NH2 (antisense TACCAGGCAAGGC; chemistry not fully specified) [ASO 9] | 84.5 | 84.3 | – | – | – | – | – | – | – | –
Fmoc-GA(5)A-GC(1O2)C-A(5)GG-C(1O2)AA(5)-G-NH2 (antisense GAAGCCAGGCAAG; N-Fmoc, C-terminal amide, chemistry not fully specified) [ASO 1] | – | – | 90.8 | 94.4 | significantly lower | markedly inhibited | decreased | ~60 % of the negative control | more than 80% | considerably weaker
